Literature values as cited in US10201585B2, “Methods for treatment of atherosclerosis” (Stealth Peptides International, Inc., priority 2012, dated 2019).

Key:
hepatitis C virus (HCV) = conditions: alone and with interferon; cited from earlier work
[1] = test system: spinal cord injury in rodents; conditions: administered both pre- and post-injury; cited from earlier work

Row | SMILES | Effect on HCV in an in vitro model of HCV infection (hepatitis C virus (HCV)) | Effect in spinal cord injury [1]
1 | CC(C)c1c(C(=O)Nc2ccccc2)c(-c2ccccc2)c(-c2ccc(F)cc2)n1CC[C@@H](O)C[C@@H](O)CC(=O)O [atorvastatin] | anti-HCV effect | promoting locomotion and tissue sparing, as well as reducing inflammation
2 | CC[C@H](C)C(=O)O[C@H]1C[C@@H](C)C=C2C=C[C@H](C)[C@H](CC[C@@H]3C[C@@H](O)CC(=O)O3)[C@H]21 [lovastatin] | anti-HCV effect | 
3 | O=C(O)C[C@H](O)C[C@H](O)/C=C/c1c(C2CC2)nc2ccccc2c1-c1ccc(F)cc1 [pitavastatin] | anti-HCV effect | 
